Where a name gives a salt, the structure may show the parent alone.
Tests used:
MNK2 = MNK2 (Homo sapiens (Human), UniProt Q9HBH9); test: In vitro MNK kinase assay (Caliper LabChip mobility shift); type: biochemical; conditions: enzymatic, 250 μM ATP; read-out: IC50 Mnk2
MNK1 = MNK1 (Homo sapiens, UniProt Q9BUB5); test: as above; type: biochemical; conditions: enzymatic, 1.2 mM ATP; read-out: IC50 Mnk1

Chain of MNK2 (Q9HBH9 84-388): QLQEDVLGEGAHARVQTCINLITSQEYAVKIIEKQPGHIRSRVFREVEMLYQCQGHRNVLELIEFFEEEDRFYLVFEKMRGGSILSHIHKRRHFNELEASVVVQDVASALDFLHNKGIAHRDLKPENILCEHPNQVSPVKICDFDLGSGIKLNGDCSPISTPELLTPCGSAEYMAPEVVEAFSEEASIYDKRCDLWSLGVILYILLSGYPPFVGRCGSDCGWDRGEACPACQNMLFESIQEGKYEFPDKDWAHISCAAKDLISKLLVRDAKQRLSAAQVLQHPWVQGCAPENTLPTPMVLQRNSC

Compound	IC50 (MNK2)	IC50 (MNK1)
CC1(C)CCN(C(=O)c2ccc(-c3cn4c(-c5ccc(C(N)=O)cc5)cnc4cn3)cc2)CC1 [Example 3, 4-(6-(4-(4,4-dimethylpiperidine-1-carbonyl)phenyl)imidazo[1,2-a]pyrazin-3-yl)benzamide]	< 100 nM	< 1000 nM
NC(=O)c1ccc(-c2cnc3cnc(-c4ccc(C(=O)N5CCC(N)CC5)cc4)cn23)cc1 [Example 4, 4-(6-(4-(4-aminopiperidine-1-carbonyl)phenyl)imidazo[1,2-a]pyrazin-3-yl)benzamide hydrochloride]	< 100 nM	< 100 nM
CC(C)(C)N1CCN(C(=O)c2ccc(-c3cn4c(-c5ccc(C(N)=O)cc5)cnc4cn3)cc2)CC1 [Example 5, 4-(6-(4-(4-tert-butylpiperazine-1-carbonyl)phenyl)imidazo[1,2-a]pyrazin-3-yl)benzamide]	< 100 nM	< 100 nM
N#Cc1ccc(-c2cnc3cnc(-c4ccc(C(=O)N5CCOCC5)cc4)cn23)cc1 [Example 7, 4-(6-(4-(morpholine-4-carbonyl)phenyl)imidazo[1,2-a]pyrazin-3-yl)benzonitrile]	< 1000 nM	< 1000 nM
CNC1CCN(C(=O)c2ccc(-c3cn4c(-c5ccc(C#N)cc5)cnc4cn3)cc2)CC1 [Example 9, 4-(6-(4-(4-(methylamino)piperidine-1-carbonyl)phenyl)imidazo[1,2-a]pyrazin-3-yl)benzonitrile]	< 1000 nM	< 1000 nM
N#Cc1ccc(-c2cnc3cnc(-c4ccc(C(=O)N5CCN(C6CC6)CC5)cc4)cn23)cc1 [Example 14, 4-(6-(4-(4-cyclopropylpiperazine-1-carbonyl)phenyl)imidazo[1,2-a]pyrazin-3-yl)benzonitrile]	< 1000 nM	< 1000 nM
N#Cc1ccc(-c2cnc3cnc(-c4ccc(C(=O)N5CCC(O)CC5)cc4)cn23)cc1 [Example 15, 4-(6-(4-(4-hydroxypiperidine-1-carbonyl)phenyl)imidazo[1,2-a]pyrazin-3-yl)benzonitrile]	< 1000 nM	< 1000 nM
CN1CCCN(C(=O)c2ccc(-c3cn4c(-c5ccc(C#N)cc5)cnc4cn3)cc2)CC1 [Example 17, 4-(6-(4-(4-methyl-1,4-diazepane-1-carbonyl)phenyl)imidazo[1,2-a]pyrazin-3-yl)benzonitrile]	< 1000 nM	< 1000 nM
CN(C)C1CCN(C(=O)c2ccc(-c3cn4c(-c5ccc(C#N)cc5)cnc4cn3)cc2)CC1 [Example 21, 4-(6-(4-(4-(dimethylamino)piperidine-1-carbonyl)phenyl)imidazo[1,2-a]pyrazin-3-yl)benzonitrile]	< 1000 nM	< 1000 nM
CC1(N)CCN(C(=O)c2ccc(-c3cn4c(-c5ccc(C#N)cc5)cnc4cn3)cc2)CC1 [Example 23, 4-(6-(4-(4-amino-4-methylpiperidine-1-carbonyl)phenyl)imidazo[1,2-a]pyrazin-3-yl)benzonitrile Hydrochloride Salt]	< 100 nM	< 1000 nM
N#Cc1ccc(-c2cnc3cnc(-c4ccc(C(=O)N5CCC6(CC5)COC6)cc4)cn23)cc1 [Example 24, 4-(6-(4-(2-oxa-7-azaspiro[3.5]nonane-7-carbonyl)phenyl)imidazo[1,2-a]pyrazin-3-yl)benzonitrile]	< 1000 nM	< 1000 nM
CC(C)(C)N1CCN(C(=O)c2ccc(-c3cn4c(-c5ccc(C#N)cc5)cnc4cn3)cc2)CC1 [Example 26, 4-(6-(4-(4-tert-butylpiperazine-1-carbonyl)phenyl)imidazo[1,2-a]pyrazin-3-yl)benzonitrile]	< 1000 nM	< 1000 nM
Cc1cc(-c2cn3c(-c4ccc(C#N)cc4)cnc3cn2)ccc1C(=O)N1CCC(C)(N)CC1 [Example 28, 4-(6-(4-(4-amino-4-methylpiperidine-1-carbonyl)-3-methylphenyl)imidazo[1,2-a]pyrazin-3-yl)benzonitrile]	< 100 nM	< 100 nM
N#Cc1ccc(-c2cnc3cnc(-c4ccc(C(=O)N5CCC(N)CC5)c(F)c4)cn23)cc1 [Example 29, 4-(6-(4-(4-aminopiperidine-1-carbonyl)-3-fluorophenyl)imidazo[1,2-a]pyrazin-3-yl)benzonitrile]	< 1000 nM	< 1000 nM
CC1(N)CCN(C(=O)c2ccc(-c3cn4c(-c5ccc(C#N)cc5)cnc4cn3)cc2F)CC1 [Example 30, 4-(6-(4-(4-amino-4-methylpiperidine-1-carbonyl)-3-fluorophenyl)imidazo[1,2-a]pyrazin-3-yl)benzonitrile]	< 1000 nM	< 1000 nM
N#Cc1ccc(-c2cnc3cnc(-c4ccc(C(=O)N5CCC(N)CC5)c(Cl)c4)cn23)cc1 [Example 31, 4-(6-(4-(4-aminopiperidine-1-carbonyl)-3-chlorophenyl)imidazo[1,2-a]pyrazin-3-yl)benzonitrile]	< 1000 nM	< 1000 nM
CC1(N)CCN(C(=O)c2ccc(-c3cn4c(-c5ccc(C#N)cc5)cnc4cn3)cc2Cl)CC1 [Example 32, 4-(6-(4-(4-amino-4-methylpiperidine-1-carbonyl)-3-chlorophenyl)imidazo[1,2-a]pyrazin-3-yl)benzonitrile]	< 1000 nM	< 100 nM

Compound	IC50 (MNK2)	IC50 (MNK1)
CN1CCN(C(=O)c2ccc(-c3cn4c(-c5ccc(C#N)cc5)cnc4cn3)c(O)c2)CC1 [Example 38, 4-(6-(2-hydroxy-4-(4-methylpiperazine-1-carbonyl)phenyl)imidazo[1,2-a]pyrazin-3-yl)benzonitrile]	< 1000 nM	< 1000 nM
COc1cc(-c2cn3c(-c4ccc(C#N)cc4)cnc3cn2)ccc1C(=O)N1CCN(C)CC1 [Example 39, 4-(6-(3-methoxy-4-(4-methylpiperazine-1-carbonyl)phenyl)imidazo[1,2-a]pyrazin-3-yl)benzonitrile]	< 1000 nM	< 1000 nM
CN1CCN(C(=O)c2ccc(-c3cn4c(-c5ccc(Cl)cc5)cnc4cn3)cc2)CC1 [Example 41, (4-(3-(4-chlorophenyl)imidazo[1,2-a]pyrazin-6-yl)phenyl)(4-methylpiperazin-1-yl)methanone]	< 1000 nM	< 1000 nM
NC(=O)c1ccc(-c2cn3c(-c4ccc(Cl)cc4)cnc3cn2)cc1 [Example 42, 4-(3-(4-chlorophenyl)imidazo[1,2-a]pyrazin-6-yl)benzamide]	< 1000 nM	< 1000 nM
O=C1CCN(C(=O)c2ccc(-c3cn4c(-c5ccc(Cl)cc5)cnc4cn3)cc2)CC1 [Example 43, 1-(4-(3-(4-chlorophenyl)imidazo[1,2-a]pyrazin-6-yl)benzoyl)piperidin-4-one]	< 1000 nM	< 1000 nM
CCN1CCN(C(=O)c2ccc(-c3cn4c(-c5ccc(Cl)cc5)cnc4cn3)cc2)CC1 [Example 45, (4-(3-(4-chlorophenyl)imidazo[1,2-a]pyrazin-6-yl)phenyl)(4-ethylpiperazin-1-yl)methanone]	< 1000 nM	< 1000 nM
O=C(c1ccc(-c2cn3c(-c4ccc(Cl)cc4)cnc3cn2)cc1)N1CCNCC1 [Example 46, (4-(3-(4-chlorophenyl)imidazo[1,2-a]pyrazin-6-yl)phenyl)(piperazin-1-yl)methanone 2,2,2-trifluoroacetate salt]	< 1000 nM	< 1000 nM
O=C(c1ccc(-c2cn3c(-c4ccc(Cl)cc4)cnc3cn2)cc1)N1CCC(NC(=O)C(F)(F)F)CC1 [Example 48, N-(1-(4-(3-(4-chlorophenyl)imidazo[1,2-a]pyrazin-6-yl)benzoyl)piperidin-4-yl)-2,2,2-trifluoroacetamide]	–	< 1000 nM
N#Cc1ccc(-c2cnc3ccc(-c4ccc(C(=O)N5CCC(O)CC5)cc4)nn23)cc1 [Example 55, 4-(6-(4-(4-hydroxypiperidine-1-carbonyl)phenyl)imidazo[1,2-b]pyridazin-3-yl)benzonitrile]	< 100 nM	< 100 nM
N#Cc1ccc(-c2cnc3ccc(-c4ccc(C(=O)N5CCC(N)CC5)cc4)nn23)cc1 [Example 56, 4-(6-(4-(4-aminopiperidine-1-carbonyl)phenyl)imidazo[1,2-b]pyridazin-3-yl)benzonitrile]	< 100 nM	< 100 nM
CC(=O)NC1CCN(C(=O)c2ccc(-c3ccc4ncc(-c5ccc(C#N)cc5)n4n3)cc2)CC1 [Example 57, N-(1-(4-(3-(4-cyanophenyl)imidazo[1,2-b]pyridazin-6-yl)benzoyl)piperidin-4-yl)acetamide]	< 100 nM	< 100 nM
CC1(N)CCN(C(=O)c2ccc(-c3ccc4ncc(-c5ccc(C#N)cc5)n4n3)cc2)CC1 [Example 58, 4-(6-(4-(4-amino-4-methylpiperidine-1-carbonyl)phenyl)imidazo[1,2-b]pyridazin-3-yl)benzonitrile]	< 100 nM	< 100 nM
CC(C)N1CCN(C(=O)c2ccc(-c3ccc4ncc(-c5ccc(C#N)cc5)n4n3)cc2)CC1 [Example 59, 4-(6-(4-(4-isopropylpiperazine-1-carbonyl)phenyl)imidazo[1,2-b]pyridazin-3-yl)benzonitrile]	< 100 nM	< 100 nM
CNC1CCN(C(=O)c2ccc(-c3ccc4ncc(-c5ccc(C#N)cc5)n4n3)cc2)CC1 [Example 60, 4-(6-(4-(4-(methylamino)piperidine-1-carbonyl)phenyl)imidazo[1,2-b]pyridazin-3-yl)benzonitrile]	< 100 nM	< 100 nM
CN(C)C1CCN(C(=O)c2ccc(-c3ccc4ncc(-c5ccc(C#N)cc5)n4n3)cc2)CC1 [Example 63, 4-(6-(4-(4-(dimethylamino)piperidine-1-carbonyl)phenyl)imidazo[1,2-b]pyridazin-3-yl)benzonitrile]	< 100 nM	< 100 nM
N#Cc1ccc(-c2cnc3ccc(-c4ccc(C(=O)N5CCCOCC5)cc4)nn23)cc1 [Example 64, 4-(6-(4-(1,4-oxazepane-4-carbonyl)phenyl)imidazo[1,2-b]pyridazin-3-yl)benzonitrile]	< 100 nM	< 100 nM
CN1CCN(C(=O)c2ccc(-c3ccc4ncc(-c5ccc(O)cc5)n4c3)cc2)CC1 [Example 175, (4-(3-(4-hydroxyphenyl)imidazo[1,2-a]pyridin-6-yl)phenyl)(4-methylpiperazin-1-yl)methanone]	< 100 nM	–

Source: patent publication US9908886B2 (Agency for Science, Technology and Research, priority 2012, dated 2018)
